From ChEMBL document CHEMBL3045607, “Design and synthesis of novel N-substituted-3-chloro-2-azetidinone derivatives as potential anticonvulsant agents” (Med Chem Res, 2011) come the findings set out here.

Activity calls are given as the source filed them. No cut-off for these calls is given here.

Data set [1] concerns Mus musculus. Nature of the data set: Anticonvulsant activity in ip dosed Mus musculus (mouse) assessed as protection against maximal electroshock-induced seizure after 4 hr. The note with it: read-out: MED. The class given is functional.
Data set [2] deals with Mus musculus. Nature of the data set: Neurotoxicity in Mus musculus (mouse) assessed as minimal motor impairment at 300 mg/kg, ip after 4 hr by rotarod test. The note with it: in vivo. The class given is toxicity, organism-based. More on the design: dose 300 mg/kg, route intraperitoneal.
Data set [3] relates to Mus musculus. Nature of the data set: Anticonvulsant activity in ip dosed Mus musculus (mouse) assessed as protection against maximal electroshock-induced seizure after 0.5 hr. The class given is functional. To be noted: read-out: MED. A general note: Protection in the maximal electroshock model is a classic sign of anticonvulsant action.
Data set [4] has as its system Mus musculus. Nature of the data set: Anticonvulsant activity in ip dosed Mus musculus (mouse) assessed as protection against subcutaneous pentylene tetrazole-induced seizure after 0.5 hr. Type of data set: functional. To be noted: read-out: MED.
The test system of data set [5] is Mus musculus. Nature of the data set: Anticonvulsant activity in ip dosed Mus musculus (mouse) assessed as protection against subcutaneous pentylene tetrazole-induced seizure after 4 hr. The class given is functional. To be noted: read-out: MED.
In data set [6] the test system is Mus musculus. Nature of the data set: Neurotoxicity in Mus musculus (mouse) assessed as minimal motor impairment at 300 mg/kg, ip after 0.5 hr by rotarod test. More on the design: dose 300 mg/kg, route intraperitoneal. The note with it: in vivo. Type of data set: toxicity, organism-based. In general terms: The rotarod test checks motor coordination on a turning rod.

Data set [7] concerns Mus musculus. Nature of the data set: Neurotoxicity in Mus musculus (mouse) assessed as increase in immobility time at 30 mg/kg, ip administered 30 min before test measured for 5 min by forced swimming test. The note with it: in vivo. Type of data set: toxicity, organism-based. More on the design: dose 30 mg/kg, route intraperitoneal.
Data set [8] concerns Mus musculus. Nature of the data set: Anticonvulsant activity in Mus musculus (mouse) assessed as protection against subcutaneous pentylene tetrazole-induced seizure at 300 mg/kg, ip after 0.5 hr. The class given is functional, organism-based. More on the design: dose 300 mg/kg.
In data set [9] the test system is Mus musculus. Nature of the data set: Neurotoxicity in ip dosed Mus musculus (mouse) assessed as minimal motor impairment after 4 hr by rotarod test. The class given is toxicity, organism-based. The note with it: in vivo.
In data set [10] the test system is Mus musculus. Nature of the data set: Anticonvulsant activity in Mus musculus (mouse) assessed as protection against maximal electroshock-induced seizure at 300 mg/kg, ip after 0.5 hr. More on the design: dose 300 mg/kg. The class given is functional, organism-based.
Data set [11] relates to Mus musculus. Nature of the data set: Anticonvulsant activity in Mus musculus (mouse) assessed as protection against subcutaneous pentylene tetrazole-induced seizure at 300 mg/kg, ip after 4 hr. Type of data set: functional, organism-based. The arrangement: dose 300 mg/kg.
Data set [12] concerns Mus musculus. Nature of the data set: Neurotoxicity in ip dosed Mus musculus (mouse) assessed as minimal motor impairment after 0.5 hr by rotarod test. Type of data set: toxicity, organism-based. The note with it: in vivo.

Turning to `COc1ccc(C2C(Cl)C(=O)N2NC(=O)c2ccncc2)cc1OC` (stereo not given), the minimal effective dose in the data set on Mus musculus [1], with Mus musculus [3], in the data set on Mus musculus [4] and with Mus musculus [5] was 100 mg/kg each time. The Activity result with Mus musculus [2] is “Non-toxic”; in the data set on Mus musculus [6], “Non-toxic”; with Mus musculus [7], 33.83%.
With `COc1cc(C2C(Cl)C(=O)N2NC(=O)c2ccncc2)ccc1O` (stereo not given), the minimal effective dose in the data set with Mus musculus [1] worked out at 100 mg/kg; in the data set with Mus musculus [3] it was 300 mg/kg; in the data set with Mus musculus [5], 300 mg/kg. Besides, the Activity entry in the data set with Mus musculus [2] and in the data set with Mus musculus [6] was “Non-toxic” each time. Also, in the data set with Mus musculus [8], the result was inactive.
As to `NC(=O)N1c2ccccc2C=Cc2ccccc21` [CARBAMAZEPINE], the MTC in the data set on Mus musculus [9] worked out at 30 mg/kg. The minimal effective dose with Mus musculus [1] was 100 mg/kg; in the data set on Mus musculus [3] it was 30 mg/kg; in the data set on Mus musculus [4], 100 mg/kg; in the data set with Mus musculus [5], 300 mg/kg. The figures for the Activity entry in the data set on Mus musculus [6] and in the data set with Mus musculus [7] were “Non-toxic” and 30.66%, respectively.
Regarding `CN(C)c1ccc(C2C(Cl)C(=O)N2NC(=O)c2ccncc2)cc1` (stereo not given), the minimal effective dose with Mus musculus [1], in the data set on Mus musculus [3] and with Mus musculus [5] was 100 mg/kg each time. For the same compound, the Activity entry is reported as “Non-toxic” in the data set with Mus musculus [2], “Non-toxic” with Mus musculus [6] and 49.83% with Mus musculus [7]. Moreover, the result in the data set with Mus musculus [8] was inactive.
In the case of `O=C(NN1C(=O)C(Cl)C1c1ccc(Cl)cc1)c1ccncc1` (stereo not given), the minimal effective dose in the data set on Mus musculus [1] is 100 mg/kg; with Mus musculus [3], 300 mg/kg; with Mus musculus [4], 100 mg/kg; in the data set with Mus musculus [5], 100 mg/kg. In addition, the Activity result in the data set on Mus musculus [2] is given as “Non-toxic”; in the data set with Mus musculus [6] it was “Non-toxic”; in the data set on Mus musculus [7], 54.54%.
As for `O=C(NN1C(=O)C(Cl)C1c1ccc([N+](=O)[O-])cc1)c1ccncc1` (stereo not given), the MTC in the data set with Mus musculus [9] is 300 mg/kg. The minimal effective dose in the data set with Mus musculus [1] came out at 100 mg/kg; with Mus musculus [4], 300 mg/kg; in the data set on Mus musculus [5] it was 100 mg/kg. In addition, the Activity entry in the data set on Mus musculus [6] is “Non-toxic”. Further, in the data set with Mus musculus [10], the result was inactive.
On to `O=C1NC(=O)C(c2ccccc2)(c2ccccc2)N1` [PHENYTOIN], for which the MTC in the data set on Mus musculus [9] and with Mus musculus [12] was 100 mg/kg throughout. Also, the minimal effective dose in the data set on Mus musculus [1] and with Mus musculus [3] was 30 mg/kg each time. Further, the result in the data set with Mus musculus [8] and in the data set with Mus musculus [11] was inactive.
Regarding `O=C(NN1C(=O)C(Cl)C1c1ccccc1[N+](=O)[O-])c1ccncc1` (stereo not given), the minimal effective dose in the data set on Mus musculus [1] and in the data set with Mus musculus [5] was 300 mg/kg in each case. The Activity result in the data set with Mus musculus [2] and in the data set on Mus musculus [6] was “Non-toxic” in each case. For the same compound, the result with Mus musculus [8] and with Mus musculus [10] was inactive.
In the case of `Cc1ccc(C2C(Cl)C(=O)N2NC(=O)c2ccncc2)cc1` (stereo not given), the minimal effective dose with Mus musculus [1] worked out at 30 mg/kg; with Mus musculus [3] it was 30 mg/kg; with Mus musculus [4], 100 mg/kg; with Mus musculus [5], 30 mg/kg. The Activity result was “Non-toxic” with Mus musculus [2], “Non-toxic” in the data set on Mus musculus [6] and 21.66% with Mus musculus [7].
As to `O=C(NN1C(=O)C(Cl)C1c1ccccc1O)c1ccncc1` (stereo not given), the minimal effective dose in the data set on Mus musculus [1] stood at 300 mg/kg. Moreover, the Activity result in the data set with Mus musculus [2] and in the data set on Mus musculus [6] was “Non-toxic” in each case. For the same compound, the outcome with Mus musculus [8], in the data set with Mus musculus [11] and with Mus musculus [10] was inactive.
`O=C(NN1C(=O)C(Cl)C1c1ccccc1Cl)c1ccncc1` (stereo not given): the minimal effective dose in the data set with Mus musculus [1] turned out to be 300 mg/kg. Moreover, the Activity result with Mus musculus [2] and with Mus musculus [6] was “Non-toxic” each time. Besides, the outcome in the data set on Mus musculus [8], with Mus musculus [11] and in the data set on Mus musculus [10] was inactive.
As for `O=C(NN1C(=O)C(Cl)C1c1ccc(O)cc1)c1ccncc1` (stereo not given), in the data set on Mus musculus [9], the MTC is 300 mg/kg. The values for the minimal effective dose with Mus musculus [1] and with Mus musculus [5] were 100 mg/kg and 300 mg/kg, respectively. The outcome in the data set on Mus musculus [8] and in the data set with Mus musculus [10] was inactive. Moreover, the Activity entry in the data set with Mus musculus [6] is listed as “Non-toxic”.
Take `COc1ccccc1C1C(Cl)C(=O)N1NC(=O)c1ccncc1` (stereo not given): the minimal effective dose with Mus musculus [1] is 300 mg/kg. For the same compound, the Activity entry with Mus musculus [2] and in the data set with Mus musculus [6] was “Non-toxic” in each case. Also, the outcome in the data set on Mus musculus [8], in the data set with Mus musculus [11] and with Mus musculus [10] was inactive.
With `O=C(NN1C(=O)C(Cl)C1c1ccccc1)c1ccncc1` (stereo not given), the minimal effective dose in the data set with Mus musculus [1], with Mus musculus [3], with Mus musculus [4] and with Mus musculus [5] was 100 mg/kg each time. Also, the Activity entry is “Non-toxic” with Mus musculus [2], “Non-toxic” with Mus musculus [6] and 11.5% in the data set on Mus musculus [7].
